Source: paper PMC9609070 (ACS Omega, 2022)

Assay: Apparent thermodynamic functions of mixing
Format: physicochemical
Settings: Thm=303.0 K

ΔmixG° (apparent Gibbs energy of mixing) (NMP+water, x1=0.100): 13.24 kJ·mol^–1
ΔmixH° (apparent enthalpy of mixing) (NMP+water, x1=0.100): 3.14 kJ·mol^–1
ΔmixS° (apparent entropy of mixing) (NMP+water, x1=0.100): –33.32 J·mol^–1·K^–1
ΔmixG° (apparent Gibbs energy of mixing) (NMP+water, x1=0.200): 8.18 kJ·mol^–1
ΔmixH° (apparent enthalpy of mixing) (NMP+water, x1=0.200): 0.11 kJ·mol^–1
ΔmixS° (apparent entropy of mixing) (NMP+water, x1=0.200): –26.62 J·mol^–1·K^–1
ΔmixG° (apparent Gibbs energy of mixing) (NMP+water, x1=0.300): 4.22 kJ·mol^–1
ΔmixH° (apparent enthalpy of mixing) (NMP+water, x1=0.300): –3.31 kJ·mol^–1
ΔmixS° (apparent entropy of mixing) (NMP+water, x1=0.300): –24.85 J·mol^–1·K^–1
ΔmixG° (apparent Gibbs energy of mixing) (NMP+water, x1=0.400): 1.15 kJ·mol^–1
ΔmixH° (apparent enthalpy of mixing) (NMP+water, x1=0.400): –7.38 kJ·mol^–1
ΔmixS° (apparent entropy of mixing) (NMP+water, x1=0.400): –28.14 J·mol^–1·K^–1
ΔmixG° (apparent Gibbs energy of mixing) (NMP+water, x1=0.500): –1.16 kJ·mol^–1
ΔmixH° (apparent enthalpy of mixing) (NMP+water, x1=0.500): –10.00 kJ·mol^–1
ΔmixS° (apparent entropy of mixing) (NMP+water, x1=0.500): –29.18 J·mol^–1·K^–1
ΔmixG° (apparent Gibbs energy of mixing) (NMP+water, x1=0.600): –2.74 kJ·mol^–1
ΔmixH° (apparent enthalpy of mixing) (NMP+water, x1=0.600): –6.91 kJ·mol^–1
ΔmixS° (apparent entropy of mixing) (NMP+water, x1=0.600): –13.74 J·mol^–1·K^–1
ΔmixG° (apparent Gibbs energy of mixing) (NMP+water, x1=0.700): –3.72 kJ·mol^–1
ΔmixH° (apparent enthalpy of mixing) (NMP+water, x1=0.700): 1.42 kJ·mol^–1
ΔmixS° (apparent entropy of mixing) (NMP+water, x1=0.700): 16.95 J·mol^–1·K^–1
ΔmixG° (apparent Gibbs energy of mixing) (NMP+water, x1=0.800): –4.65 kJ·mol^–1
ΔmixH° (apparent enthalpy of mixing) (NMP+water, x1=0.800): –0.68 kJ·mol^–1
ΔmixS° (apparent entropy of mixing) (NMP+water, x1=0.800): 13.10 J·mol^–1·K^–1
ΔmixG° (apparent Gibbs energy of mixing) (NMP+water, x1=0.900): –5.56 kJ·mol^–1
ΔmixH° (apparent enthalpy of mixing) (NMP+water, x1=0.900): –5.29 kJ·mol^–1
ΔmixS° (apparent entropy of mixing) (NMP+water, x1=0.900): 0.90 J·mol^–1·K^–1
ΔmixG° (apparent Gibbs energy of mixing) (neat NMP, x1=1.000): –6.17 kJ·mol^–1
ΔmixH° (apparent enthalpy of mixing) (neat NMP, x1=1.000): –3.73 kJ·mol^–1
ΔmixS° (apparent entropy of mixing) (neat NMP, x1=1.000): 8.07 J·mol^–1·K^–1
ΔmixG° (apparent Gibbs energy of mixing) (neat water, x1=0.000): 20.19 kJ·mol^–1
ΔmixH° (apparent enthalpy of mixing) (neat water, x1=0.000): –17.09 kJ·mol^–1
ΔmixS° (apparent entropy of mixing) (neat water, x1=0.000): –123.02 J·mol^–1·K^–1
SMILES: Cc1cnc(NC(=O)C2=C(O)c3ccccc3S(=O)(=O)N2C)s1 [Meloxicam, 4-hydroxy-2-methyl-N-(5-methyl-2-thiazolyl)-2H-1,2-benzothiazine-3-carboxamide-1,1-dioxide]
